Data as given in patent publication US11389438B2 (CHDI Foundation, Inc., priority 2019, dated 2022).
Read-outs that look alike come from different tables or passages of the source.

Legend:
[1] = target: VHL complex (VHL, Elongin B, Elongin C, Cul2, Rbx1) (Homo sapiens (Human), UniProt P40337); assay: VHL SPR assay; format: binding; conditions: immobilized VHL complex; read-out: VHL SPR Kd
Description: (§1) Surface Plasmon Resonance (SPR) assays have been developed to test the affinity (KD) of VHL or CRBN-based compounds to respective recombinant ligase complex/domain.
(§2) The assays are based on surface plasmon resonance (SPR), which enables to measure the changes of the local refractive index due to changes of molecular mass on a gold chip surface in the case of a binding event and in a flowing system. To detect binding between both partners, the respective E3 ligase is immobilized to the chip surface, while the test compounds are flown over the chip surface at a steady velocity. The detected changes in the RU response are indicative of the binding event and are concentration dependent.
(§3) These tags provide the anchor for the capturing process to either an NTA or Streptavidin coated chip surface (immobilization level of 3,000-5,000 RU). Because of the rather complex structure of the VHL complex, it was additionally coupled to the chip surface by amino coupling to prevent any protein loss by disruption of the complex in the flowing system.
(§4) To detect binding of compounds and extract dissociation constants KD for the tested compounds to the immobilized E3 ligase, concentration response curves of the compounds were recorded. Compounds were usually tested in 10-pt dilutions up to 20 μM final concentration in assay buffer and were flown over the chip at 30 μL/min. The contact time for each cycle includes 90 s for association and 200 s for dissociation of compounds.
(§5) In the following tables, the Kd values are indicated as: +++, <100 nM; ++, 100-500 nM, +, >500 nM.

[2] = target: HTT-Exon1-Q73-EGFP in HeLa cells (aggregated HTT) (Homo sapiens (Human), UniProt P42858, INS38QQQQQQQQQQQQQQQQQQQQQQQQQQQQQQQQQQQQQQQQQQQQQQQQQQQQ); assay: HTT degradation assay, aggregated HTT MSD assay; format: cell-based; conditions: HeLa cells transfected with Exon1-Q73-EGFP, 22 hr, 0.01-10 μM
HTT-Exon1-Q73-EGFP in HeLa cells (aggregated HTT), sequence (P42858 other isoform, or with tags, fused parts or gaps limits assumed, stated change not applied): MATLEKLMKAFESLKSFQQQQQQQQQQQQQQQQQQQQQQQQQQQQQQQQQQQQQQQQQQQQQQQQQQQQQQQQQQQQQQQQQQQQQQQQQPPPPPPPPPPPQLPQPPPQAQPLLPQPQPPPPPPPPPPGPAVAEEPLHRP
Description: (§6) Compounds described herein were tested for efficacy in HTT-lowering in human HeLa cells transiently overexpressing HTT-Exon1-polyQn proteins. For HTT degradation experiments HeLa cells were transiently transfected with pcDNA3.1(+)-hHTT-E1mixQn-EGFP plasmids for transient expression of HTT-Exon1 proteins of different polyQ length (HTT-exon1-Q23/73/145-EGFP). Two hours after transfection the cells were treated with test compounds at 7 concentrations from 0.01 μM to 10 μM (final assay concentration)+DMSO control. After a 22 hr incubation with test compounds the cells were washed with 1×PBS and lysed in MSD lysis buffer (150 mM NaCl; 20 mM Tris ph 7.5; 1 mM EDTA, 1 mM EGTA; 1% Triton X-100, 1× Phosphatase Inh. Cocktail 2, 1× Phosphatase Inh. Cocktail 3, 1× Protease Inh. Cocktail, 10 mM NaF, 1 mM PMSF) for 30 min on ice. […]
(§7) After an additional washing step, 10 μL per sample were transferred to each well of the antibody-coated MSD plate and incubated with shaking for 1 h at RT. […] After washing three times with washing buffer, 35 μL of read buffer T with surfactant (Meso Scale Discovery) were added to each well. […] The obtained readout is the MSD signal intensity for each well. […]

[3] = target: pre-formed polyQ46 or Exon1-polyQ46 aggregates (mHTT) (Homo sapiens, UniProt P42858, INS38QQQQQQQQQQQQQQQQQQQQQQQQQ); assay: Q46_RBA radioligand binding assay (displacement of [3H]-radioligand)
Description: Binding of W to mHTT. A radioligand binding assay was developed to screen for compounds which can efficiently displace a radioligand detailed elsewhere (see, e.g., U.S. Patent Publication No. from US 2017/0292150) pre-formed polyQ46 or Exon1-polyQ46 aggregates (Q46_RBA).
Aggregation of polyQ peptides is initiated by cleavage of the tag from a GST-polyQ46 or from a MBP-Exon1-polyQ46 fusion protein. The pre-formed aggregates are then incubated with compounds which compete with the [^3H]-radiolabelled ligand for binding to the aggregates. The readout is a scintillation based MicroBeta measurement of radioligand bound to aggregates. The activity was indicated as: +++, <100 nM; ++, 100-500 nM, +, >500 nM.

[4] = target: HTT-Exon1-Q73-EGFP in HeLa cells (soluble mHTT) (Homo sapiens (Human), UniProt P42858, INS38QQQQQQQQQQQQQQQQQQQQQQQQQQQQQQQQQQQQQQQQQQQQQQQQQQQQ); assay: HTT degradation assay, soluble mHTT MSD assay; format: cell-based; conditions: HeLa cells transfected with Exon1-Q73-EGFP, 22 hr, 0.01-10 μM
HTT-Exon1-Q73-EGFP in HeLa cells (soluble mHTT), sequence (P42858 other isoform, or with tags, fused parts or gaps limits assumed, stated change not applied): as the sequence (P42858 other isoform, or with tags, fused parts or gaps limits assumed, stated change not applied) above
Description: as §6, §7

[5] = target: mouse CRBN thalidomide binding domain (mCRBN-TBD) (Mus musculus (Mouse), UniProt Q8C7D2); assay: CRBN SPR assay; conditions: immobilized mCRBN-TBD
mouse CRBN thalidomide binding domain (mCRBN-TBD), sequence (Q8C7D2 321-429): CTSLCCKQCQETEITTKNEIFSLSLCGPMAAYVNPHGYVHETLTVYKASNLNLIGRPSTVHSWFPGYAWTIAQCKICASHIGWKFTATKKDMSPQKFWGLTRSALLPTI
Description: as §1, §2, §3, §4, §5

[6] = class symbols, read-out: Q46_RBA IC50

VHL complex (VHL, Elongin B, Elongin C, Cul2, Rbx1), sequence (P40337 whole entry, looked up): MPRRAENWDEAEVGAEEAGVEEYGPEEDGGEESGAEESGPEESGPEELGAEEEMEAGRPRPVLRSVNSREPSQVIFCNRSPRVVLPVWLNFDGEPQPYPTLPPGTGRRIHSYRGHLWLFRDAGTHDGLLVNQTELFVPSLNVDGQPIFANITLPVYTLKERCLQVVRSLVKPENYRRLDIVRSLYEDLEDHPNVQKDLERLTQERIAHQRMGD
VHL complex (VHL, Elongin B, Elongin C, Cul2, Rbx1), sequence (Q15370 whole entry partner, looked up): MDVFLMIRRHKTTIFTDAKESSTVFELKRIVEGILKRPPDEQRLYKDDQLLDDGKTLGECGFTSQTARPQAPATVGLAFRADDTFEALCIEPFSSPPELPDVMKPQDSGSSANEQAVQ
VHL complex (VHL, Elongin B, Elongin C, Cul2, Rbx1), sequence (Q15369 whole entry partner, looked up): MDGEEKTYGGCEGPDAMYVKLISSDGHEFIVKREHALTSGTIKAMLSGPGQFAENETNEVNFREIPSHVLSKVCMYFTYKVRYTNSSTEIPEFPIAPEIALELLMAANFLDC
VHL complex (VHL, Elongin B, Elongin C, Cul2, Rbx1), sequence (Q13617 whole entry partner, looked up): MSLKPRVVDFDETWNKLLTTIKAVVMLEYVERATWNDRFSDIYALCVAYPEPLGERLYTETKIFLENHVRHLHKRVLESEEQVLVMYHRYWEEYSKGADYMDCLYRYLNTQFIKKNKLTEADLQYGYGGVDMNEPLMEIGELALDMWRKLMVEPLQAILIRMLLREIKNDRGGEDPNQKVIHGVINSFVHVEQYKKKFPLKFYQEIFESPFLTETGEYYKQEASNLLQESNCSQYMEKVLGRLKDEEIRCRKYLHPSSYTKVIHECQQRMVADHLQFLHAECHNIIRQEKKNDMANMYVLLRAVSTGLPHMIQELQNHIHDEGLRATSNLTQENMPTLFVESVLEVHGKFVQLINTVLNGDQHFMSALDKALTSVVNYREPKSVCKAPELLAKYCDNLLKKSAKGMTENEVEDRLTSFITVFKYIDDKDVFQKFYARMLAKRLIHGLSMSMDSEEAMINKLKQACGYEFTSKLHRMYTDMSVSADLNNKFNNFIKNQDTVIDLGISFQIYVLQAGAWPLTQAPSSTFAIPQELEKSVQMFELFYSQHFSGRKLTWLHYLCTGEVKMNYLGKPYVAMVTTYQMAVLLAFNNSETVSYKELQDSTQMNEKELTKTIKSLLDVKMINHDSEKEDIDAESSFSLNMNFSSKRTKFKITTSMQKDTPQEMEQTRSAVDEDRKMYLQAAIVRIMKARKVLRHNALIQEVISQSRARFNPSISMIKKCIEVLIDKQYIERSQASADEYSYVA
VHL complex (VHL, Elongin B, Elongin C, Cul2, Rbx1), sequence (P62877 whole entry partner, looked up): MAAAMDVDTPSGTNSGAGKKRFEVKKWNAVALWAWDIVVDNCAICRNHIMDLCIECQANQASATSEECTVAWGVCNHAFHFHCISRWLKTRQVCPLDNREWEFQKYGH

Row | SMILES | Kd [1] | Reduction of aggregated mHTT Exon1-Q73 levels [2] | IC50 [3] | Reduction of soluble mHTT Exon1-Q73 levels [4] | Kd [5] | IC50 [3, 6]
1 | CNc1c(-c2cn3c(n2)sc2cc(OCCOCC(=O)N[C@H](C(=O)N4C[C@H](O)C[C@H]4C(=O)NCc4ccc(-c5scnc5C)cc4)C(C)(C)C)ccc23)nc2cc(C#N)ccn12 [Compound 1] | 100 to 500 nM | confirmed | < 100 nM | confirmed |  | 
2 | CNc1c(-c2cn3c(n2)sc2cc(OCCOCC(=O)N[C@@H](C(=O)N4C[C@@H](O)C[C@@H]4C(=O)NCc4ccc(-c5scnc5C)cc4)C(C)(C)C)ccc23)nc2cc(C#N)ccn12 [Compound 10] |  |  | < 100 nM | less active |  | 
3 | Cn1nc(-c2nc3cc(OCc4ccc(OCCOCCOCCNc5cccc6c5C(=O)N(C5CCC(=O)NC5=O)C6=O)cn4)ccc3o2)ccc1=O (centres unmarked) [Compound 31, 2-(2,6-Dioxopiperidin-3-yl)-4-({2-[2-(2-{[6-({[2-(1-methyl-6-oxo-1,6-dihydropyridazin-3-yl)-1,3-benzoxazol-5-yl]oxy}methyl)pyridin-3-yl]oxy}ethoxy)ethoxy]ethyl}amino)-2,3-dihydro-1H-isoindole-1,3-dione] |  |  | < 100 nM |  | 100 to 500 nM | 
4 | Cn1nc(-c2nc3cc(NC(=O)c4ccc(OCCOCCOCCOCCOCCOCCNc5cccc6c5C(=O)N(C5CCC(=O)NC5=O)C6=O)cn4)ccc3o2)ccc1=O (centres unmarked) [Compound 32] |  |  | < 100 nM |  | 100 to 500 nM | 
5 | Cn1nc(-c2nc3cc(NC(=O)c4ccc(OCCOCCOCCNc5cccc6c5C(=O)N(C5CCC(=O)NC5=O)C6=O)cn4)ccc3o2)ccc1=O (centres unmarked) [Compound 33, 5-{2-[2-(2-{[2-(2,6-Dioxopiperidin-3-yl)-1,3-dioxo-2,3-dihydro-1H-isoindol-4-yl]amino}ethoxy)ethoxy]ethoxy}-N-[2-(1-methyl-6-oxo-1,6-dihydropyridazin-3-yl)-1,3-benzoxazol-5-yl]pyridine-2-carboxamide] |  |  | < 100 nM |  | 100 to 500 nM | 
6 | Cn1nc(-c2nc3cc(NC(=O)c4ccc(OCCOCCOCCOCCOCCOCCOCCOCCOCCOCCOCCOCCNc5cccc6c5C(=O)N(C5CCC(=O)NC5=O)C6=O)cn4)ccc3o2)ccc1=O (centres unmarked) [Compound 34] |  |  |  |  | > 500 nM | < 100 nM
7 | Cn1nc(-c2nc3cc(NC(=O)c4ccc(OCCOCCOCCOCCNc5cccc6c5C(=O)N(C5CCC(=O)NC5=O)C6=O)cn4)ccc3o2)ccc1=O (centres unmarked) [Compound 36] |  |  | < 100 nM |  | 100 to 500 nM | 
8 | Cn1nc(-c2nc3cc(NC(=O)c4ccc(OCCOCCOCCOCCOCCOCCOCCOCCOCCOCCOCCOCCOCCOCCOCCOCCNc5cccc6c5C(=O)N(C5CCC(=O)NC5=O)C6=O)cn4)ccc3o2)ccc1=O (centres unmarked) [Compound 37] |  |  |  |  | 100 to 500 nM | < 100 nM
9 | Cn1nc(-c2nc3cc(NC(=O)c4ccc(OCCOCCOCCOCCOCCOCCOCCOCCOCCNc5cccc6c5C(=O)N(C5CCC(=O)NC5=O)C6=O)cn4)ccc3o2)ccc1=O (centres unmarked) [Compound 38] |  |  | < 100 nM |  | 100 to 500 nM | 
10 | CN1C(=O)CCC(N2C(=O)c3cccc(NCCOCCOCCOCCOCCOCCOc4ccc(C(=O)Nc5ccc6oc(-c7ccc(=O)n(C)n7)nc6c5)nc4)c3C2=O)C1=O (centres unmarked) [Compound 39] |  |  | < 100 nM |  | > 500 nM | 
11 | CN1C(=O)CCC(N2C(=O)c3cccc(NCCOCCOCCOCCOCCOCCOCCOCCOCCOCCOCCOCCOc4ccc(C(=O)Nc5ccc6oc(-c7ccc(=O)n(C)n7)nc6c5)nc4)c3C2=O)C1=O (centres unmarked) [Compound 40] |  |  |  |  | > 500 nM | < 100 nM
12 | CN1C(=O)CCC(N2C(=O)c3cccc(NCCOCCOCCOc4ccc(C(=O)Nc5ccc6oc(-c7ccc(=O)n(C)n7)nc6c5)nc4)c3C2=O)C1=O (centres unmarked) [Compound 70] |  |  | < 100 nM |  | > 500 nM | 
